Values quoted from earlier work, collected in US8729014B2, “Specific HCV NS3 protease inhibitors” (RFS Pharma, LLC, priority 2010, dated 2014).

Test system: HepG2 cells
Details: HepG2 cells incubated with 10 μM; cited from earlier work

Compound: O=c1[nH]c(=O)n([C@@H]2O[C@H](CO)[C@@H](O)[C@@H]2F)cc1I [fialuridine, 1,2′-deoxy-2′-fluoro-1-D-arabinofuranosly-5-iodo-uracil]
- morphological changes in mitochondria (electron micrographs): enlarged mitochondria with morphological changes consistent with mitochondrial dysfunction
